# According to BindingDB's records for doi:10.1021/jm9904102 (Abbott Laboratories, 2000):
# Experiment: Inhibition of calcium ionophore (A-23187)-stimulated LTB4 formation in human neutrophil assay
row,IC50,Structure (SMILES)
1,43 nM,O=C(O)/C(Cc1ccc(O)cc1)=N/OC(c1ccc(OCc2ccc3ccccc3n2)cc1)C1CCCCC1 (stereo unspecified) [2-{Cyclohexyl-[4-(quinolin-2-ylmethoxy)-phenyl]-methoxyimino}-3-(4-hydroxy-phenyl)-propionic acid]
2,181 nM,O=C(O)/C(CSCCO)=N/OC(c1ccc(OCc2ccc3ccccc3n2)cc1)C1CCCCC1 (stereo unspecified) [2-{Cyclohexyl-[4-(quinolin-2-ylmethoxy)-phenyl]-methoxyimino}-3-(2-hydroxy-ethylsulfanyl)-propionic acid]
3,27 nM,"O=C(O)/C=N/OC(c1ccc(OCc2nc3cccnc3s2)cc1)C1CCCCC1 (stereo unspecified) [{Cyclohexyl-[4-(thiazolo[5,4-b]pyridin-2-ylmethoxy)-phenyl]-methoxyimino}-acetic acid]"
4,35 nM,O=C(O)/C(Cc1ccccc1)=N/OC(c1ccc(OCc2ccc3ccccc3n2)cc1)C1CCCCC1 (stereo unspecified) [2-{Cyclohexyl-[4-(quinolin-2-ylmethoxy)-phenyl]-methoxyimino}-3-phenyl-propionic acid (H2O)]
5,360 nM,C/C(=N\OC(c1ccc(OCc2cscn2)cc1)C1CCCCC1)C(=O)O (stereo unspecified) [2-{Cyclohexyl-[4-(thiazol-4-ylmethoxy)-phenyl]-methoxyimino}-propionic acid (0.25H2O)]
6,7 nM,O=C(O)CSC(CCCc1ccc(Cl)cc1)c1ccc(OCc2ccc3ccccc3n2)cc1 [L-674636]
7,28 nM,O=C(O)/C=N/OC(c1ccc(OCc2nc3ccccc3s2)cc1Cl)C1CCCCC1 (stereo unspecified) [{[4-(Benzothiazol-2-ylmethoxy)-2-chloro-phenyl]-cyclohexyl-methoxyimino}-acetic acid]
8,8 nM,C/C(=N\O[C@H](c1ccc(OCc2ccc3ccccc3n2)cc1)C1CCCCC1)C(=O)O
9,17 nM,O=C(O)/C=N/OC(c1ccc(OCc2ccc3ccccc3n2)cc1)C1CCCCC1 (stereo unspecified) [{Cyclohexyl-[4-(quinolin-2-ylmethoxy)-phenyl]-methoxyimino}-acetic acid]
10,59 nM,C/C(CCCC(=O)O)=N\OC(c1ccc(OCc2ccc3ccccc3n2)cc1)C1CCCCC1 (stereo unspecified) [5-{Cyclohexyl-[4-(quinolin-2-ylmethoxy)-phenyl]-methoxyimino}-hexanoic acid]
11,33 nM,C/C(=N\OC(c1cc2cc(OCc3ccc4ccccc4n3)ccc2s1)C1CCCCC1)C(=O)O (stereo unspecified) [2-{Cyclohexyl-[5-(quinolin-2-ylmethoxy)-benzo[b]thiophen-2-yl]-methoxyimino}-propionic acid]
12,25 nM,O=C(O)/C=N/OC(c1ccc(OCc2cnc3ccccc3n2)cc1)C1CCCCC1 (stereo unspecified) [{Cyclohexyl-[4-(quinoxalin-2-ylmethoxy)-phenyl]-methoxyimino}-acetic acid]
13,52 nM,CCCCC(O/N=C/C(=O)O)c1ccc(OCc2ccc3ccccc3n2)cc1 (stereo unspecified) [{1-[4-(Quinolin-2-ylmethoxy)-phenyl]-pentyloxyimino}-acetic acid]
14,30 nM,CC/C(=N\OC(c1ccc(OCc2ccc3ccccc3n2)cc1)C1CCCCC1)C(=O)O (stereo unspecified) [2-{Cyclohexyl-[4-(quinolin-2-ylmethoxy)-phenyl]-methoxyimino}-butyric acid (H2O)]
15,490 nM,C/C(=N\OC(c1cc(OCc2ccc3ccccc3n2)on1)C1CCCCC1)C(=O)O (stereo unspecified) [2-{Cyclohexyl-[5-(quinolin-2-ylmethoxy)-isoxazol-3-yl]-methoxyimino}-propionic acid]
16,380 nM,Cc1nc(COc2ccc(C(O/N=C/C(=O)O)C3CCCCC3)cc2)cs1 (stereo unspecified) [{Cyclohexyl-[4-(2-methyl-thiazol-4-ylmethoxy)-phenyl]-methoxyimino}-acetic acid]
17,14 nM,C/C(=N\OC(c1ccc(OCc2ccc3ccccc3n2)cc1Cl)C1CCCCC1)C(=O)O (stereo unspecified) [2-{[2-Chloro-4-(quinolin-2-ylmethoxy)-phenyl]-cyclohexyl-methoxyimino}-propionic acid]
18,40 nM,C/C(=N\OC(c1cc2ccc(OCc3ccc4ccccc4n3)cc2s1)C1CCCCC1)C(=O)O (stereo unspecified) [2-{Cyclohexyl-[6-(quinolin-2-ylmethoxy)-benzo[b]thiophen-2-yl]-methoxyimino}-propionic acid]
19,31 nM,O=C(O)c1ccc(/C=N/OC(c2ccc(OCc3ccc4ccccc4n3)cc2)C2CCCCC2)cc1 (stereo unspecified) [4-({Cyclohexyl-[4-(quinolin-2-ylmethoxy)-phenyl]-methoxyimino}-methyl)-benzoic acid]
20,27 nM,O=C(O)/C=N/OC(CC1CCCCC1)c1ccc(OCc2ccc3ccccc3n2)cc1 (stereo unspecified) [{2-Cyclohexyl-1-[4-(quinolin-2-ylmethoxy)-phenyl]-ethoxyimino}-acetic acid]
21,18 nM,O=C(O)/C=N/OC(c1ccc(OCc2ccc3ccccc3n2)cc1)C1CCCCCC1 (stereo unspecified) [{Cycloheptyl-[4-(quinolin-2-ylmethoxy)-phenyl]-methoxyimino}-acetic acid]
22,29 nM,C/C(=N\OC(CC1CCCCC1)c1ccc(OCc2ccc3ccccc3n2)cc1)C(=O)O (stereo unspecified) [2-{2-Cyclohexyl-1-[4-(quinolin-2-ylmethoxy)-phenyl]-ethoxyimino}-propionic acid]

row,IC50,Structure (SMILES)
1,33 nM,C/C(=N\OC(c1ccc(OCc2ccc3ccccc3n2)cc1)c1cccs1)C(=O)O (stereo unspecified) [2-{[4-(Quinolin-2-ylmethoxy)-phenyl]-thiophen-2-yl-methoxyimino}-propionic acid]
2,27 nM,C/C(=N\OC(c1ccc(OCc2ccc3ccccc3n2)c(Cl)c1)C1CCCCC1)C(=O)O (stereo unspecified) [2-{[3-Chloro-4-(quinolin-2-ylmethoxy)-phenyl]-cyclohexyl-methoxyimino}-propionic acid]
3,30 nM,C/C(=N\OC(Cc1ccccc1)c1ccc(OCc2ccc3ccccc3n2)cc1)C(=O)O (stereo unspecified) [2-{2-Phenyl-1-[4-(quinolin-2-ylmethoxy)-phenyl]-ethoxyimino}-propionic acid (0.25H2O)]
4,20 nM,C/C(CCC(=O)O)=N/OC(c1ccc(OCc2ccc3ccccc3n2)cc1)C1CCCCC1 (stereo unspecified)
5,20 nM,C/C(=N\OC(c1ccc(OCc2nc(-c3ccccc3)cs2)cc1)C1CCCCC1)C(=O)O (stereo unspecified) [2-{Cyclohexyl-[4-(4-phenyl-thiazol-2-ylmethoxy)-phenyl]-methoxyimino}-propionic acid (0.5H2O)]
6,1200 nM,O=C(O)/C=N/OC(c1ccc(-c2ccc3ccccc3n2)cc1)C1CCCCC1 (stereo unspecified) [[Cyclohexyl-(4-quinolin-2-yl-phenyl)-methoxyimino]-acetic acid(0.25H2O)]
7,23 nM,O=C(O)/C(=N\OC(c1ccc(OCc2ccc3ccccc3n2)cc1)C1CCCCC1)c1cccs1 (stereo unspecified)
8,48 nM,C/C(=N\OC(c1ccc(OCc2nc3cc(F)ccc3s2)cc1Cl)C1CCCCC1)C(=O)O (stereo unspecified) [2-{[2-Chloro-4-(5-fluoro-benzothiazol-2-ylmethoxy)-phenyl]-cyclohexyl-methoxyimino}-propionic acid]
9,28 nM,C/C(=N\OC(c1ccc(OCc2nc3ccccc3s2)cc1Cl)C1CCCCC1)C(=O)O (stereo unspecified) [2-{[4-(Benzothiazol-2-ylmethoxy)-2-chloro-phenyl]-cyclohexyl-methoxyimino}-propionic acid]
10,90 nM,C/C(=N\OC(c1ccc(OCc2ccc3ccccc3n2)cc1SC1CCCCC1)C1CCCCC1)C(=O)O (stereo unspecified) [2-{Cyclohexyl-[2-cyclohexylsulfanyl-4-(quinolin-2-ylmethoxy)-phenyl]-methoxyimino}-propionic acid]
11,10 nM,CCCCC(CCCC)C(O/N=C/C(=O)O)c1ccc(OCc2ccc3ccccc3n2)cc1 (stereo unspecified) [{2-Butyl-1-[4-(quinolin-2-ylmethoxy)-phenyl]-hexyloxyimino}-acetic acid]
12,60 nM,O=C(O)/C=N/OC(c1ccc(OCc2nc3ccccc3s2)cc1)C1CCCCC1 (stereo unspecified) [{[4-(Benzothiazol-2-ylmethoxy)-phenyl]-cyclohexyl-methoxyimino}-acetic acid]
13,87 nM,O=C(O)/C=N/OC(c1ccc(OCc2nc3cc(F)ccc3s2)cc1)C1CCCCC1 (stereo unspecified) [{Cyclohexyl-[4-(5-fluoro-benzothiazol-2-ylmethoxy)-phenyl]-methoxyimino}-acetic acid]
14,20 nM,COc1cc(OCc2ccc3ccccc3n2)ccc1C(O/N=C/C(=O)O)C1CCCCC1 (stereo unspecified) [{Cyclohexyl-[2-methoxy-4-(quinolin-2-ylmethoxy)-phenyl]-methoxyimino}-acetic acid]
15,31 nM,O=C(O)/C(=N/OC(c1ccc(OCc2ccc3ccccc3n2)cc1)C1CCCCC1)c1ccccc1 (stereo unspecified) [{Cyclohexyl-[4-(quinolin-2-ylmethoxy)-phenyl]-methoxyimino}-phenyl-acetic acid (0.5H2O)]
16,20 nM,C/C(=N\OC(c1ccc(OCc2ccc3cc(F)ccc3n2)cc1)C1CCCCC1)C(=O)O (stereo unspecified) [2-{Cyclohexyl-[4-(6-fluoro-quinolin-2-ylmethoxy)-phenyl]-methoxyimino}-propionic acid]
17,60 nM,O=C(O)[C@@H](c1ccc(OCc2ccc3ccccc3n2)cc1)C1CCCC1 [(R)-Cyclopentyl-[4-(quinolin-2-ylmethoxy)-phenyl]-acetic acid]
18,30 nM,O=C(O)/C=N/OC(c1ccc(OCc2ccc3ccccc3n2)cc1)C1CCCC1 (stereo unspecified) [{Cyclopentyl-[4-(quinolin-2-ylmethoxy)-phenyl]-methoxyimino}-acetic acid]
19,56 nM,O=C(O)/C=N/OC(c1ccc2cc(OCc3ccc4ccccc4n3)ccc2c1)C1CCCCC1 (stereo unspecified) [{Cyclohexyl-[6-(quinolin-2-ylmethoxy)-naphthalen-2-yl]-methoxyimino}-acetic acid]
20,20 nM,Cc1cc(C(O/N=C/C(=O)O)C2CCCCC2)ccc1OCc1ccc2ccccc2n1 (stereo unspecified) [{Cyclohexyl-[3-methyl-4-(quinolin-2-ylmethoxy)-phenyl]-methoxyimino}-acetic acid (0.4H2O)]
21,60 nM,C/C(=N\OC(c1ccc(OCc2nc3ccccc3s2)cc1)C1CCCCC1)C(=O)O (stereo unspecified) [2-{[4-(Benzothiazol-2-ylmethoxy)-phenyl]-cyclohexyl-methoxyimino}-propionic acid (0.5H2O)]
22,140 nM,O=C(O)/C=N/OC(c1ccc(OCc2cc(-c3ccccc3)on2)cc1)C1CCCCC1 (stereo unspecified) [{Cyclohexyl-[4-(5-phenyl-isoxazol-3-ylmethoxy)-phenyl]-methoxyimino}-acetic acid]

row,Structure (SMILES),IC50
1,C/C(=N\OC(CC(C)(C)c1ccccc1)c1ccc(OCc2ccc3ccccc3n2)cc1)C(=O)O (stereo unspecified) [2-{3-Methyl-3-phenyl-1-[4-(quinolin-2-ylmethoxy)-phenyl]-butoxyimino}-propionic acid (0.25H2O)],22 nM
2,CC(C)(CC(O/N=C/C(=O)O)c1ccc(OCc2ccc3ccccc3n2)cc1)c1ccccc1 (stereo unspecified) [{3-Methyl-3-phenyl-1-[4-(quinolin-2-ylmethoxy)-phenyl]-butoxyimino}-acetic acid],10 nM
